As usually defined, the IC50 is the concentration that gives 50% inhibition. Higher therefore signals weaker potency in that assay.

Results on 24 molecules are retold here after patent US9567302B2, “Carbamate compounds and of making and using same” (Abide Therapeutics, Inc., priority 2012, dated 2017).

Type in all cases: biochemical
What all share (set-up): from tissue; host or cells: mouse brain membrane fraction
Holding throughout (details): Table 1, mouse proteome, 30 min preincubation at 37° C.

The target in one experiment is T1, MAGL (Mus musculus, UniProt O35678).
T1 sequence (O35678 1-303): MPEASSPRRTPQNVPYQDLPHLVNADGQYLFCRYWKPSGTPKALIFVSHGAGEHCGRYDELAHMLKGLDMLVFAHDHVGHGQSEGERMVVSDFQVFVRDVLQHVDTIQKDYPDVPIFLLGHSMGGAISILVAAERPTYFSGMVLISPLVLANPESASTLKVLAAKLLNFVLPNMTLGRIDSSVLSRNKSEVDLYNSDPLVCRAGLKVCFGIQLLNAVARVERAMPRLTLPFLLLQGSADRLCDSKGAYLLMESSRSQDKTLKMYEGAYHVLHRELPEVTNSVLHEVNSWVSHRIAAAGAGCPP
Briefly: In vitro competitive activity-based protein profiling (FP-Rh), mouse MAGL. On the procedure:
(§1) In Vitro Competitive Activity-Based Protein Profiling.
(§2) Proteomes (mouse brain membrane fraction or cell lysates) (50 μL, 1.0 mg/ml total protein concentration) were preincubated with varying concentrations of inhibitors at 37° C. After 30 min, FP-Rh (1.0 μL, 50 μM in DMSO) was added and the mixture was incubated for another 30 min at 37° C. Reactions were quenched with SDS loading buffer (50 μL—4×) and run on SDS-PAGE.

A further experiment concerns the target T2, FAAH (Mus musculus, UniProt O08914).
T2 sequence (O08914 1-579): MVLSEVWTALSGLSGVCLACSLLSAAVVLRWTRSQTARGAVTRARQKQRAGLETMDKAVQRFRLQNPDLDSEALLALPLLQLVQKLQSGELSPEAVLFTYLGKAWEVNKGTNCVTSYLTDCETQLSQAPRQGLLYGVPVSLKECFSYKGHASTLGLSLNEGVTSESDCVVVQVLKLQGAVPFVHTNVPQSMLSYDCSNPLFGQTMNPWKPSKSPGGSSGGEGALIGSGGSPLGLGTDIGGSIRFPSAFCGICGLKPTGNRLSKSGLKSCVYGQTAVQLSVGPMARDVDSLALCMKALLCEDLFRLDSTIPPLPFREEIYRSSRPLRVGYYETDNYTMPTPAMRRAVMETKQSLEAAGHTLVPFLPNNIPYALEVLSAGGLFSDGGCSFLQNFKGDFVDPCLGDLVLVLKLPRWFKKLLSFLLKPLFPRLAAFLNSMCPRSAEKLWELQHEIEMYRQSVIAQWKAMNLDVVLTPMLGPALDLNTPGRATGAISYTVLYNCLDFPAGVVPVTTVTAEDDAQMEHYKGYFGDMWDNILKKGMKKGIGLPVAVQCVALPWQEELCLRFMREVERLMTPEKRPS
Briefly: In vitro competitive activity-based protein profiling (FP-Rh), mouse FAAH. On the procedure:
as §1, §2

Another experiment concerns the target T3, ABHD6 (Mus musculus, UniProt Q8R2Y0).
T3 sequence (Q8R2Y0 1-336): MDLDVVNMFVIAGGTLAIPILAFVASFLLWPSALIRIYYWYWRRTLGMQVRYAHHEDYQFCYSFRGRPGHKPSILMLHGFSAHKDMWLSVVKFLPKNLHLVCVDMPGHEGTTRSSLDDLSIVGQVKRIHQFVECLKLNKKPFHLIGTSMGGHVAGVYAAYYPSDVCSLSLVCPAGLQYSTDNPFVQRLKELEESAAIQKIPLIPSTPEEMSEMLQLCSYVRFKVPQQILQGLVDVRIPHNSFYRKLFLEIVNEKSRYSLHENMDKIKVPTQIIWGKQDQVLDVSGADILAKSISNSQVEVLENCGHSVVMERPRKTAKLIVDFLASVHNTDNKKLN
Briefly: In vitro competitive activity-based protein profiling (FP-Rh), mouse ABHD6. How it is done: as §1, §2

For the molecule `O=C1CCC(=O)N1OC(=O)N1CCCCC1C(F)(F)F` (stereo not drawn) [Example 24, 2,5-Dioxopyrrolidin-1-yl 2-(trifluoromethyl)piperidine-1-carboxylate], the IC50 on MAGL, on FAAH and at ABHD6 was above 10000 nM throughout.
Turning to `O=C1CCC(=O)N1OC(=O)N1CCCCC1CCc1ccccc1` (stereo not drawn) [Example 25, 2,5-Dioxopyrrolidin-1-yl 2-(2-phenylethyl)piperidine-1-carboxylate], the IC50 at MAGL, on FAAH and on ABHD6 was above 10000 nM in each case.
Consider `C#CCCC(=O)N1CCN(C(=O)ON2C(=O)CCC2=O)CC1` [Example 26, 2,5-Dioxopyrrolidin-1-yl 4-(pent-4-ynoyl)piperazine-1-carboxylate], for which the half-maximal inhibitory concentration (IC50) on MAGL, on FAAH and at ABHD6 was above 10000 nM in each case.
In the case of `C#CCCCCNC(=O)ON1C(=O)CCC1=O` [Example 28, 2,5-Dioxopyrrolidin-1-yl N-(hex-5-yn-1-yl)carbamate], the IC50 on MAGL is above 10000 nM; on FAAH, 1000 to 10000 nM; at ABHD6, 1000 to 10000 nM.
Regarding `O=C(ON1C(=O)CCC1=O)N1CCCC1` [Example 29, 2,5-Dioxopyrrolidin-1-yl pyrrolidine-1-carboxylate], the IC50 at MAGL, at FAAH and at ABHD6 was above 10000 nM throughout.
Consider `O=C(ON1C(=O)CCC1=O)N1CCC1` [Example 30, 2,5-Dioxopyrrolidin-1-yl azetidine-1-carboxylate], for which the IC50 at MAGL, on FAAH and at ABHD6 was above 10000 nM each time.
As for `CCCCCCCC/C=C\CCCCCCCCNC(=O)ON1C(=O)CCC1=O` [Example 31, 2,5-Dioxopyrrolidin-1-yl N-[(9Z)-octadec-9-en-1-yl]carbamate], the half-inhibitory concentration (IC50) at MAGL, on FAAH and on ABHD6 was 1000 to 10000 nM throughout.
On to `O=C(ON1C(=O)c2ccccc2C1=O)N1CCC(CCc2ccc(Cl)cc2)CC1` [Example 32, 1,3-Dioxo-2,3-dihydro-1H-isoindol-2-yl 4-[2-(4-chlorophenyl)ethyl]piperidine-1-carboxylate], for which the IC50 is 1000 to 10000 nM on MAGL, below 100 nM at FAAH and below 100 nM on ABHD6.
As to `O=C(ON1C(=O)c2ccccc2C1=O)N1CCN(C(c2ccc(Cl)cc2)c2ccc(Cl)cc2)CC1` [Example 33, 1,3-Dioxo-2,3-dihydro-1H-isoindol-2-yl 4-[bis(4-chlorophenyl)methyl]piperazine-1-carboxylate], the IC50 on MAGL is above 10000 nM; on FAAH, above 10000 nM; at ABHD6 it was 100 to 1000 nM.
Regarding `COc1ccc(N2CCN(C(=O)ON3C(=O)c4ccccc4C3=O)CC2)cc1` [Example 34, 1,3-Dioxo-2,3-dihydro-1H-isoindol-2-yl 4-(4-methoxyphenyl)piperazine-1-carboxylate], the half-inhibitory concentration (IC50) is above 10000 nM on MAGL, 100 to 1000 nM on FAAH and below 100 nM on ABHD6.
For `O=C(ON1C(=O)CCC1=O)N1CCOCC1` [Example 38, 2,5-Dioxopyrrolidin-1-yl morpholine-4-carboxylate] the same measures were above 10000 nM, above 10000 nM and above 10000 nM.
Take `CC1(C)CC(=O)N(OC(=O)N2CCN(C(c3ccc(Cl)cc3)c3ccc(Cl)cc3)CC2)C1=O` [Example 42, 3,3-Dimethyl-2,5-dioxopyrrolidin-1-yl 4-(bis(4-chlorophenyl)methyl)piperazine-1-carboxylate]: the IC50 was 1000 to 10000 nM at MAGL, above 10000 nM on FAAH and 1000 to 10000 nM on ABHD6.
`CCCC1CC(=O)N(OC(=O)N2CCN(C(c3ccc(Cl)cc3)c3ccc(Cl)cc3)CC2)C1=O` (stereo not drawn) [Example 43, 2,5-Dioxo-3-propylpyrrolidin-1-yl 4-(bis(4-chlorophenyl)methyl)piperazine-1-carboxylate]: the IC50 is 100 to 1000 nM on MAGL, above 10000 nM on FAAH and 100 to 1000 nM on ABHD6.
`O=C(ON1C(=O)CC(c2ccccc2)C1=O)N1CCN(C(c2ccc(Cl)cc2)c2ccc(Cl)cc2)CC1` (stereo not drawn) [Example 44, 2,5-Dioxo-3-phenylpyrrolidin-1-yl 4-(bis(4-chlorophenyl)methyl)piperazine-1-carboxylate]: the IC50 was 1000 to 10000 nM at MAGL, above 10000 nM at FAAH and 1000 to 10000 nM on ABHD6.
Regarding `O=C(ON1C(=O)C2CCCCC2C1=O)N1CCN(C(c2ccc(Cl)cc2)c2ccc(Cl)cc2)CC1` (stereo not drawn) [Example 45, 1,3-Dioxohexahydro-1H-isoindol-2(3H)-yl 4-(bis(4-chlorophenyl)methyl)piperazine-1-carboxylate], the IC50 on MAGL was 1000 to 10000 nM; on FAAH, above 10000 nM; on ABHD6, 100 to 1000 nM.
Consider `CC(C)C1NC(=O)N(OC(=O)N2CCN(C(c3ccc(Cl)cc3)c3ccc(Cl)cc3)CC2)C1=O` (stereo not drawn) [Example 47, 4-Isopropyl-2,5-dioxoimidazolidin-1-yl 4-(bis(4-chlorophenyl)methyl)piperazine-1-carboxylate], for which the half-maximal inhibitory concentration (IC50) is 100 to 1000 nM on MAGL, above 10000 nM at FAAH and 100 to 1000 nM at ABHD6.
Take `O=C(ON1C(=O)CNC1=O)N1CCC(CCc2ccc(Cl)cc2)CC1` [Example 48, 2,5-Dioxoimidazolidin-1-yl 4-(4-chlorophenethyl)piperidine-1-carboxylate]: the IC50 on MAGL, at FAAH and on ABHD6 was below 100 nM in each case.
`CN1CC(=O)N(OC(=O)N2CCC(CCc3ccc(Cl)cc3)CC2)C1=O` [Example 49, 3-Methyl-2,5-dioxoimidazolidin-1-yl 4-(4-chlorophenethyl)piperidine-1-carboxylate]: the results for the IC50 on MAGL, on FAAH and on ABHD6 were below 100 nM, 100 to 1000 nM and below 100 nM, respectively.
As to `O=C(ON1C(=O)CN(Cc2ccccc2)C1=O)N1CCC(CCc2ccc(Cl)cc2)CC1` [Example 50, 3-Benzyl-2,5-dioxoimidazolidin-1-yl 4-(4-chlorophenethyl)piperidine-1-carboxylate], the IC50 at MAGL is 100 to 1000 nM; on FAAH, below 100 nM; at ABHD6 it was below 100 nM.
On to `COc1ccc(N2CCN(C(=O)ON3C(=O)CC(C)(C)C3=O)CC2)cc1` [Example 52, 3,3-Dimethyl-2,5-dioxopyrrolidin-1-yl 4-(4-methoxyphenyl)piperazine-1-carboxylate], for which the IC50 at MAGL is above 10000 nM; on FAAH, above 10000 nM; at ABHD6, 100 to 1000 nM.
Regarding `COc1ccc(N2CCN(C(=O)ON3C(=O)C4CCCCC4C3=O)CC2)cc1` (stereo not drawn) [Example 53, 1,3-Dioxohexahydro-1H-isoindol-2(3H)-yl 4-(4-methoxyphenyl)piperazine-1-carboxylate], the IC50 on MAGL is above 10000 nM; at FAAH it was above 10000 nM; on ABHD6, below 100 nM.
Regarding `COc1ccc(N2CCN(C(=O)ON3C(=O)CC(c4ccccc4)C3=O)CC2)cc1` (stereo not drawn) [Example 54, 2,5-Dioxo-3-phenylpyrrolidin-1-yl 4-(4-methoxyphenyl)piperazine-1-carboxylate], the IC50 at MAGL is 1000 to 10000 nM; on FAAH, 1000 to 10000 nM; at ABHD6 it was below 100 nM.
As for `COc1ccc(N2CCN(C(=O)ON3C(=O)NC(C(C)C)C3=O)CC2)cc1` (stereo not drawn) [Example 55, 4-Isopropyl-2,5-dioxoimidazolidin-1-yl 4-(4-methoxyphenyl)piperazine-1-carboxylate], the figures for the IC50 on MAGL, at FAAH and at ABHD6 were above 10000 nM, 1000 to 10000 nM and below 100 nM, respectively.
For `CN1CC(=O)N(OC(=O)N2CCN(C(c3ccc(Cl)cc3)c3ccc(Cl)cc3)CC2)C1=O` [Example 56, 3-Methyl-2,5-dioxoimidazolidin-1-yl 4-(bis(4-chlorophenyl)methyl)piperazine-1-carboxylate] the same measures were below 100 nM, above 10000 nM and 100 to 1000 nM.
